Assays:
[1] = system: HBV; test: Determination of HBV DNA from the supernatants of HepAD38 cells (anti-HBV activity); type: cell-based, hepatitis B virus; conditions: Hepatitis B virus, 144 h; HBV DNA in HepAD38 supernatant at day 6; read-out: Cell Activity (EC50)
Description: Determination of HBV DNA from the Supernatants of HepAD38 Cells
The anti-HBV activity was analysed in the stable transfected cell line HepAD38, which has been described to secrete high levels of HBV virion particles (Ladner et al., 1997). In brief, HepAD38 cells were cultured at 37° C. at 5% CO2 and 95% humidity in 200 μl maintenance medium, which was Dulbecco's modified Eagle's medium/Nutrient Mixture F-12 (Gibco, Karlsruhe), 10% fetal bovine serum (PAN Biotech Aidenbach) supplemented with 50 μg/ml penicillin/streptomycin (Gibco, Karlsruhe), 2 mM L-glutamine (PAN Biotech, Aidenbach), 400 μg/ml G418 (AppliChem, Darmstadt) and 0.3 μg/ml tetracycline. Cells were subcultured once a week in a 1:5 ratio, but were usually not passaged more than ten times. For the assay 60,000 cells were seeded in maintenance medium without any tetracycline into each well of a 96-well plate and treated with serial half-log dilutions of test compound. To minimize edge effects the outer 36 wells of the plate were not used but were filled with assay medium. On each assay plate six wells for the virus control (untreated HepAD38 cells) and six wells for the cell control (HepAD38 cells treated with 0.3 μg/ml tetracycline) were allocated, respectively. In addition, one plate set with reference inhibitors like BAY 41-4109, entecavir, and lamivudine instead of screening compounds were prepared in each experiment. In general, experiments were performed thrice in triplicates. At day 6 HBV DNA from 100 μl filtrated cell culture supernatant (AcroPrep Advance 96 Filter Plate, […] Supor membran, PALL GmbH, Dreieich) was automatically purified on the MagNa Pure LC instrument using the MagNA Pure 96 DNA and Viral NA Small Volume Kit (Roche Diagnostics, Mannheim) according to the instructions of the manufacturer. EC50 values were calculated from relative copy numbers of HBV DNA. In brief, 5 μl of the 100 μl eluate containing HBV DNA were subjected to PCR LC480 Probes Master Kit (Roche) together with 1 μM antisense primer […], 0.5 μM sense primer […], 0.3 μM hybprobes […]-FL and LC640-[…]-PH (TIBMolBiol, Berlin) to a final volume of 12.5 μl. The PCR was performed on the Light Cycler 480 real time system (Roche Diagnostics, Mannheim) using the following protocol: Pre-incubation for 1 min at 95° C., amplification: 40 cycles×(10 sec at 95° C., 50 sec at 60° C., 1 sec at 70° C.), cooling for 10 sec at 40° C. Viral load was quantitated against known standards using HBV plasmid DNA of pCH-9/3091 (Nassal et al., 1990, Cell 63: 1357-1363) and the LightCycler 480 SW 1.5 software (Roche Diagnostics, Mannheim) and EC50 values were calculated using non-linear regression with GraphPad Prism 6 (GraphPad Software Inc., La Jolla, USA).

[2] = target: HBV core protein (UniProt P03146); type: biochemical; conditions: read-out: Assembly Activity (IC50); BODIPY-FL labelled core protein, assembly started with NaCl, read after 6 min
Chain of HBV core protein (P03146 whole entry, looked up): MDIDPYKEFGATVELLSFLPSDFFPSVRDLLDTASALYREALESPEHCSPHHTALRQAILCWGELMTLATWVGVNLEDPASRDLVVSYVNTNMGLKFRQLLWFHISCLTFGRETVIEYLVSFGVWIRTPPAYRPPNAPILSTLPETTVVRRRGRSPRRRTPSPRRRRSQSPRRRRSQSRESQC
Description: Biochemical Capsid Assembly Assay
The screening for assembly effector activity was done based on a fluorescence quenching assay published by Zlotnick et al. (2007). The C-terminal truncated core protein containing 149 amino acids of the N-terminal assembly domain was fused to a unique cysteine residue at position 150 and was expressed in E. coli using the pET expression system (Merck Chemicals, Darmstadt). Purification of core dimer protein was performed using a sequence of size exclusion chromatography steps. In brief, the cell pellet from 1 L BL21 (DE3) Rosetta2 culture expressing the coding sequence of core protein cloned NdeI/XhoI into expression plasmid pET21b was treated for 1 h on ice with a native lysis buffer (Qproteome Bacterial Protein Prep Kit; Qiagen, Hilden). After a centrifugation step the supernatant was precipitated during 2 h stirring on ice with 0.23 g/ml of solid ammonium sulfate. Following further centrifugation the resulting pellet was resolved in buffer A (100 mM Tris, pH 7.5; 100 mM NaCl; 2 mM DTT) and was subsequently loaded onto a buffer A equilibrated CaptoCore 700 column (GE HealthCare, Frankfurt). The column flow through containing the assembled HBV capsid was dialyzed against buffer N (50 mM NaHCO3 pH 9.6; 5 mM DTT) before urea was added to a final concentration of 3M to dissociate the capsid into core dimers for 1.5 h on ice. The protein solution was then loaded onto a 1 L Sephacryl S300 column. After elution with buffer N core dimer containing fractions were identified by SDS-PAGE and subsequently pooled and dialyzed against 50 mM HEPES pH 7.5; 5 mM DTT. To improve the assembly capacity of the purified core dimers a second round of assembly and disassembly starting with the addition of 5 M NaCl and including the size exclusion chromatography steps described above was performed. From the last chromatography step core dimer containing fractions were pooled and stored in aliquots at concentrations between 1.5 to 2.0 mg/ml at −80° C.
Immediately before labelling the core protein was reduced by adding freshly prepared DTT in a final concentration of 20 mM. After 40 min incubation on ice storage buffer and DTT was removed using a Sephadex G-25 column (GE HealthCare, Frankfurt) and 50 mM HEPES, pH 7.5. For labelling 1.6 mg/ml core protein was incubated at 4° C. and darkness overnight with BODIPY-FL maleimide (Invitrogen, Karlsruhe) in a final concentration of 1 mM. After labelling the free dye was removed by an additional desalting step using a Sephadex G-25 column. Labelled core dimers were stored in aliquots at 4° C. In the dimeric state the fluorescence signal of the labelled core protein is high and is quenched during the assembly of the core dimers to high molecular capsid structures. The screening assay was performed in black 384 well microtiter plates in a total assay volume of 10 μl using 50 mM HEPES pH 7.5 and 1.0 to 2.0 μM labelled core protein. Each screening compound was added in 8 different concentrations using a 0.5 log-unit serial dilution starting at a final concentration of 100 μM, 31.6 μM or 10 μM. In any case the DMSO concentration over the entire microtiter plate was 0.5%. The assembly reaction was started by the injection of NaCl to a final concentration of […] which induces the assembly process to approximately 25% of the maximal quenched signal. 6 min after starting the reaction the fluorescence signal was measured using a Clariostar plate reader (BMG Labtech, Ortenberg) with an excitation of 477 nm and an emission of 525 nm. As 100% and 0% assembly control HEPES buffer containing 2.5 M and 0 M NaCl was used. Experiments were performed thrice in triplicates. EC50 values were calculated by non-linear regression analysis using the Graph Pad Prism 6 software (GraphPad Software, La Jolla, USA).

| Compound | EC50 [1] | IC50 [2] |
| --- | --- | --- |
| CC(C)c1cccc2[nH]c(C(=O)N3CCc4nc(N)sc4C3)cc12 [Example 12, 5-[4-(propan-2-yl)-1H-indole-2-carbonyl]-4H,5H,6H,7H-[1,3]thiazolo[5,4-c]pyridin-2-amine] | < 1 µM | < 5 µM |
| C=Cc1cccc2[nH]c(C(=O)N3CCc4nc(N)sc4C3)cc12 [Example 13, 5-(4-ethenyl-1H-indole-2-carbonyl)-4H,5H,6H,7H-[1,3]thiazolo[5,4-c]pyridin-2-amine] | 1 to 10 µM | 5 to 10 µM |
| C#Cc1cccc2[nH]c(C(=O)N3CCc4nc(N)sc4C3)cc12 [Example 14, 5-(4-ethynyl-1H-indole-2-carbonyl)-4H,5H,6H,7H-[1,3]thiazolo[5,4-c]pyridin-2-amine] | 1 to 10 µM | < 100 µM |
| CC(O)c1cc(F)cc2[nH]c(C(=O)N3CCc4nc(N)sc4C3)cc12 (centres unmarked) [Example 15, 1-(2-{2-amino-4H,5H,6H,7H-[1,3]thiazolo[5,4-c]pyridine-5-carbonyl}-6-fluoro-1H-indol-4-yl)ethan-1-ol] | 1 to 10 µM | 5 to 10 µM |
| N#Cc1ccc2cc(C(=O)N3CCc4nc(N)sc4C3)[nH]c2c1 [Example 17, 2-{2-amino-4H,5H,6H,7H-[1,3]thiazolo[5,4-c]pyridine-5-carbonyl}-1H-indole-6-carbonitrile] | 1 to 10 µM | < 100 µM |
| NCc1nc2c(s1)CN(C(=O)c1cc3ccccc3[nH]1)CC2 [Example 18, [5-(1H-indole-2-carbonyl)-4H,5H,6H,7H-[1,3]thiazolo[5,4-c]pyridin-2-yl]methanamine] | 1 to 10 µM | < 100 µM |
| COCCC(=O)Nc1nc2c(s1)CN(C(=O)c1cc3ccccc3[nH]1)CC2 [Example 19, N-[5-(1H-indole-2-carbonyl)-4H,5H,6H,7H-[1,3]thiazolo[5,4-c]pyridin-2-yl]-3-methoxypropanamide] | < 1 µM | < 5 µM |
| O=C(CC1CCOCC1)Nc1nc2c(s1)CN(C(=O)c1cc3ccccc3[nH]1)CC2 [Example 20, N-[5-(1H-indole-2-carbonyl)-4H,5H,6H,7H-[1,3]thiazolo[5,4-c]pyridin-2-yl]-2-(oxan-4-yl)acetamide] | < 1 µM | < 5 µM |
| CC(Nc1nc2c(s1)CN(C(=O)c1cc3ccccc3[nH]1)CC2)C(F)(F)F (centres unmarked) [Example 22, 5-(1H-indole-2-carbonyl)-N-(1,1,1-trifluoropropan-2-yl)-4H,5H,6H,7H-[1,3]thiazolo[5,4-c]pyridin-2-amine] | < 1 µM | < 100 µM |
| CN1CCOC(CNc2nc3c(s2)CN(C(=O)c2cc4ccccc4[nH]2)CC3)C1 (centres unmarked) [Example 23, 5-(1H-indole-2-carbonyl)-N-[(4-methylmorpholin-2-yl)methyl]-4H,5H,6H,7H-[1,3]thiazolo[5,4-c]pyridin-2-amine] | 1 to 10 µM | 5 to 10 µM |
| CS(=O)(=O)Nc1nc2c(s1)CN(C(=O)c1cc3ccccc3[nH]1)CC2 [Example 24, N-[5-(1H-indole-2-carbonyl)-4H,5H,6H,7H-[1,3]thiazolo[5,4-c]pyridin-2-yl]methanesulfonamide] | 1 to 10 µM | < 100 µM |
| Nc1nc2c(s1)CCN(C(=O)c1cc3ccccc3[nH]1)CC2 [Example 25, 6-(1H-indole-2-carbonyl)-4H,5H,6H,7H,8H-[1,3]thiazolo[4,5-d]azepin-2-amine] | < 100 µM | < 100 µM |
| CC(C)(C)CC(=O)Nc1nc2c(s1)CN(C(=O)c1cc3ccccc3[nH]1)CC2 [Example 26, N-[5-(1H-indole-2-carbonyl)-4H,5H,6H,7H-[1,3]thiazolo[5,4-c]pyridin-2-yl]-3,3-dimethylbutanamide] | < 1 µM | 5 to 10 µM |
| O=C(c1cc2ccccc2[nH]1)N1CCc2nc(NCC3(CO)CCC3)sc2C1 [Example 27, [1-({[5-(1H-indole-2-carbonyl)-4H,5H,6H,7H-[1,3]thiazolo[5,4-c]pyridin-2-yl]amino}methyl)cyclobutyl]methanol] | < 1 µM | < 5 µM |
| CNC(=O)Nc1nc2c(s1)CN(C(=O)c1cc3ccccc3[nH]1)CC2 [Example 28, 1-[5-(1H-indole-2-carbonyl)-4H,5H,6H,7H-[1,3]thiazolo[5,4-c]pyridin-2-yl]-3-methylurea] | < 1 µM | < 5 µM |
| O=C(c1cc2ccccc2[nH]1)N1CCc2nc(CO)sc2C1 [Example 31, [5-(1H-indole-2-carbonyl)-4H,5H,6H,7H-[1,3]thiazolo[5,4-c]pyridin-2-yl]methanol] | 1 to 10 µM | 5 to 10 µM |
| CCNCc1nc2c(s1)CN(C(=O)c1cc3ccccc3[nH]1)CC2 [Example 32, Ethyl({[5-(1H-indole-2-carbonyl)-4H,5H,6H,7H-[1,3]thiazolo[5,4-c]pyridin-2-yl]methyl})amine] | < 100 µM | < 100 µM |
| O=C(c1cc2ccccc2[nH]1)N1CCc2nc(NCC3CCCCO3)sc2C1 (centres unmarked) [Example 35, 5-(1H-indole-2-carbonyl)-N-[(oxan-2-yl)methyl]-4H,5H,6H,7H-[1,3]thiazolo[5,4-c]pyridin-2-amine] | < 1 µM | 5 to 10 µM |
| O=C(c1cc2ccccc2[nH]1)N1CCc2nc(NCCN3CCOCC3)sc2C1 [Example 36, 5-(1H-indole-2-carbonyl)-N-[2-(morpholin-4-yl)ethyl]-4H,5H,6H,7H-[1,3]thiazolo[5,4-c]pyridin-2-amine] | 1 to 10 µM | 5 to 10 µM |
